Measured values: patent publication EP4691468A1, “PHARMACEUTICAL COMPOSITION FOR TREATING INFLAMMATORY BOWEL DISEASE” (EA Pharma Co., Ltd., priority 2023, dated 2024)
Several values for one entry are separate records, joined by “and”; a condition that tells them apart may be missing. Equal entries are not always repeated. Where two headings read alike, the source gives them in different places.

Columns and labels:
[1] = for 24-Hour Post-Dose Trough Values of Compound (2) after Repeated Administration / Average Plasma Concentrations of Compound (2) on Day 10 of Repeated Administration: Compound (1) 400 mg once daily L-SEDDS
Experimental: (§1) A phase 1 clinical trial was conducted to evaluate the safety, tolerability, and pharmacokinetics of Compound (1) when orally administered to healthy adult males.
(§2) This clinical trial was a single-center, randomized, double-blind, placebo-controlled, single and multiple ascending dose study with the primary objective of evaluating the safety and tolerability of Compound (1) when orally administered to healthy adult males.
(§3) The subjects in each cohort consisted of 8 people, of which 6 were assigned to Compound (1) and 2 were assigned to placebo, and they were administered the drug.
Day 8, when repeated administration was started, corresponds to administration day 1 (Day 1), and day 17 corresponds to administration day 10 (Day 10).
(§4) The plasma concentration of Compound (2) was measured using a validated measurement method. Specifically, plasma was separated from collected blood and processed, and then the plasma concentration was measured by an LC/MS/MS apparatus.
For twice-daily administration of C-SEDDS, blood was further collected at 13, 14, 14.5, and 16 hours later to quantify Compound (2).

[2] = PK Simulation Analysis 2 by superposition method (200 mg twice daily); set-up: species or system human; conditions: day 10 of repeated administration
Experimental: The plasma concentration of Compound (2) on day 10 of repeated administration at 200 mg twice daily (every 12 hours) was predicted using the superposition method implemented in the Nonparametric Superposition (NPS) tool of the analysis software Phoenix WinNonlin, applying the results of once-daily administration at 200 mg (Certara L.P.) (Fig. 6). Table 6: Predicted Plasma Concentration (ng/mL) of Compound (2) on Day 10 of Repeated Administration Twice Daily

[3] = PK Simulation Analysis 1 by superposition method (Phoenix WinNonlin NPS); set-up: species or system human
Excerpt: The plasma concentration profile of Compound (2) on day 10 of repeated administration was predicted using the superposition method implemented in the Nonparametric Superposition (NPS) tool of the analysis software Phoenix WinNonlin, applying the single-dose results (Certara L.P.) (Fig. 4). Table 5: Predicted Plasma Concentration (ng/mL) of Compound (2) on Day 10 of Repeated Administration

[4] = Phase 1 single-dose administration study: plasma concentration of Compound (2) by LC/MS/MS; conditions: oral, single dose
Experimental: as §1, §2, §3, §4
Compound (1) was orally administered once to 6 healthy adult males per dose and dosage form at doses of 6, 20, 100, 200, and 400 mg in the form of hard capsules (CAP), liquid self-emulsifying drug delivery system (L-SEDDS), or soft capsule self-emulsifying drug delivery system (C-SEDDS).

[5] = Measured Value, Repeated, Once daily, 400/L-SEDDS, day 10

- 24-Hour Post-Dose Trough Values of Compound (2) after Repeated Administration ([1]; Day 1): 5.092 ng/mL
- 24-Hour Post-Dose Trough Values of Compound (2) after Repeated Administration ([1]; Day 2): 10.90 ng/mL
- 24-Hour Post-Dose Trough Values of Compound (2) after Repeated Administration ([1]; Day 3): 10.60 ng/mL
- 24-Hour Post-Dose Trough Values of Compound (2) after Repeated Administration ([1]; Day 4): 14.21 ng/mL
- 24-Hour Post-Dose Trough Values of Compound (2) after Repeated Administration ([1]; Day 5): 19.56 ng/mL
- 24-Hour Post-Dose Trough Values of Compound (2) after Repeated Administration ([1]; Day 6): 17.27 ng/mL
- 24-Hour Post-Dose Trough Values of Compound (2) after Repeated Administration ([1]; Day 7): 19.85 ng/mL
- 24-Hour Post-Dose Trough Values of Compound (2) after Repeated Administration ([1]; Day 8): 22.03 ng/mL
- 24-Hour Post-Dose Trough Values of Compound (2) after Repeated Administration ([1]; Day 9): 22.80 ng/mL
- 24-Hour Post-Dose Trough Values of Compound (2) after Repeated Administration ([1]; Day 10): 13.04 ng/mL
- Average Plasma Concentrations of Compound (2) on Day 10 of Repeated Administration ([1]; Day 10, Time 0.5 h): 23.82 ng/mL
- Average Plasma Concentrations of Compound (2) on Day 10 of Repeated Administration ([1]; Day 10, Time 1 h): 43.52 ng/mL
- Average Plasma Concentrations of Compound (2) on Day 10 of Repeated Administration ([1]; Day 10, Time 1.5 h): 44.71 ng/mL
- Average Plasma Concentrations of Compound (2) on Day 10 of Repeated Administration ([1]; Day 10, Time 2 h): 40.35 ng/mL
- Average Plasma Concentrations of Compound (2) on Day 10 of Repeated Administration ([1]; Day 10, Time 2.5 h): 34.19 ng/mL
- Average Plasma Concentrations of Compound (2) on Day 10 of Repeated Administration ([1]; Day 10, Time 3 h): 32.09 ng/mL
- Average Plasma Concentrations of Compound (2) on Day 10 of Repeated Administration ([1]; Day 10, Time 4 h): 28.31 ng/mL
- Average Plasma Concentrations of Compound (2) on Day 10 of Repeated Administration ([1]; Day 10, Time 5 h): 25.14 ng/mL
- Average Plasma Concentrations of Compound (2) on Day 10 of Repeated Administration ([1]; Day 10, Time 6 h): 17.77 ng/mL
- Average Plasma Concentrations of Compound (2) on Day 10 of Repeated Administration ([1]; Day 10, Time 7 h): 14.77 ng/mL
- Average Plasma Concentrations of Compound (2) on Day 10 of Repeated Administration ([1]; Day 10, Time 8 h): 13.57 ng/mL
- Average Plasma Concentrations of Compound (2) on Day 10 of Repeated Administration ([1]; Day 10, Time 12 h): 16.86 ng/mL
- Average Plasma Concentrations of Compound (2) on Day 10 of Repeated Administration ([1]; Day 10, Time 15 h): 11.33 ng/mL
- Average Plasma Concentrations of Compound (2) on Day 10 of Repeated Administration ([1]; Day 10, Time 21 h): 15.69 ng/mL
- Average Plasma Concentrations of Compound (2) on Day 10 of Repeated Administration ([1]; Day 10, Time 24 h): 13.04 ng/mL
- 24-Hour Post-Dose Trough Values of Compound (2) after Repeated Administration ([1]; Initial Value): 0.000 ng/mL
- increase of plasma concentration (trough value) after 24 hours on the 10th day of repeated administration ([1]; L-SEDDS 400 mg once daily, versus single-dose administration): more than threefold
- Judgment Trough Value [1, 5]: A (IC90 (6.9 ng/mL) or higher)
- Plasma Concentration Trough Value [1, 5]: 13.04 ng/mL and 13.0 ng/mL
- predicted trough value for 200 mg twice daily compared to measured trough value after 400 mg once daily [2]: about twice
- estimated trough value on the 10th day of repeated administration ([3]; 50 mg, 2.5 times the predicted 20 mg value): 2.03 ng/mL
- Average Plasma Concentrations of Compound (2) after Single-Dose Administration ([4]; Compound (1) 6 mg CAP, Time 1 h): 0.121 ng/mL
- Average Plasma Concentrations of Compound (2) after Single-Dose Administration ([4]; Compound (1) 6 mg CAP, Time 1.5 h): 0.350 ng/mL
- Average Plasma Concentrations of Compound (2) after Single-Dose Administration ([4]; Compound (1) 6 mg CAP, Time 2 h): 0.448 ng/mL
- Average Plasma Concentrations of Compound (2) after Single-Dose Administration ([4]; Compound (1) 6 mg CAP, Time 2.5 h): 0.536 ng/mL
- Average Plasma Concentrations of Compound (2) after Single-Dose Administration ([4]; Compound (1) 6 mg CAP, Time 3 h): 0.554 ng/mL
- Average Plasma Concentrations of Compound (2) after Single-Dose Administration ([4]; Compound (1) 6 mg CAP, Time 4 h): 0.590 ng/mL
- Average Plasma Concentrations of Compound (2) after Single-Dose Administration ([4]; Compound (1) 6 mg CAP, Time 5 h): 0.424 ng/mL
- Average Plasma Concentrations of Compound (2) after Single-Dose Administration ([4]; Compound (1) 6 mg CAP, Time 6 h): 0.313 ng/mL
- Average Plasma Concentrations of Compound (2) after Single-Dose Administration ([4]; Compound (1) 6 mg CAP, Time 7 h): 0.209 ng/mL
- Average Plasma Concentrations of Compound (2) after Single-Dose Administration ([4]; Compound (1) 6 mg CAP, Time 8 h): 0.127 ng/mL
- Average Plasma Concentrations of Compound (2) after Single-Dose Administration ([4]; Compound (1) 6 mg CAP, Time 12 h): 0.075 ng/mL
- Average Plasma Concentrations of Compound (2) after Single-Dose Administration ([4]; Compound (1) 20 mg CAP, Time 1 h): 0.211 ng/mL
- Average Plasma Concentrations of Compound (2) after Single-Dose Administration ([4]; Compound (1) 20 mg CAP, Time 1.5 h): 0.585 ng/mL
- Average Plasma Concentrations of Compound (2) after Single-Dose Administration ([4]; Compound (1) 20 mg CAP, Time 2 h): 0.768 ng/mL
- Average Plasma Concentrations of Compound (2) after Single-Dose Administration ([4]; Compound (1) 20 mg CAP, Time 2.5 h): 1.023 ng/mL
- Average Plasma Concentrations of Compound (2) after Single-Dose Administration ([4]; Compound (1) 20 mg CAP, Time 3 h): 0.926 ng/mL
- Average Plasma Concentrations of Compound (2) after Single-Dose Administration ([4]; Compound (1) 20 mg CAP, Time 4 h): 0.817 ng/mL
- Average Plasma Concentrations of Compound (2) after Single-Dose Administration ([4]; Compound (1) 20 mg CAP, Time 5 h): 0.702 ng/mL
- Average Plasma Concentrations of Compound (2) after Single-Dose Administration ([4]; Compound (1) 20 mg CAP, Time 6 h): 0.567 ng/mL
- Average Plasma Concentrations of Compound (2) after Single-Dose Administration ([4]; Compound (1) 20 mg CAP, Time 7 h): 0.533 ng/mL
- Average Plasma Concentrations of Compound (2) after Single-Dose Administration ([4]; Compound (1) 20 mg CAP, Time 8 h): 0.507 ng/mL
- Average Plasma Concentrations of Compound (2) after Single-Dose Administration ([4]; Compound (1) 20 mg CAP, Time 12 h): 0.351 ng/mL
- Average Plasma Concentrations of Compound (2) after Single-Dose Administration ([4]; Compound (1) 20 mg CAP, Time 15 h): 0.338 ng/mL
- Average Plasma Concentrations of Compound (2) after Single-Dose Administration ([4]; Compound (1) 20 mg CAP, Time 21 h): 0.339 ng/mL
- Average Plasma Concentrations of Compound (2) after Single-Dose Administration ([4]; Compound (1) 20 mg CAP, Time 24 h): 0.245 ng/mL
- Average Plasma Concentrations of Compound (2) after Single-Dose Administration ([4]; Compound (1) 100 mg CAP, Time 1 h): 0.556 ng/mL
- Average Plasma Concentrations of Compound (2) after Single-Dose Administration ([4]; Compound (1) 100 mg CAP, Time 1.5 h): 1.274 ng/mL
- Average Plasma Concentrations of Compound (2) after Single-Dose Administration ([4]; Compound (1) 100 mg CAP, Time 2 h): 1.864 ng/mL
- Average Plasma Concentrations of Compound (2) after Single-Dose Administration ([4]; Compound (1) 100 mg CAP, Time 2.5 h): 2.343 ng/mL
- Average Plasma Concentrations of Compound (2) after Single-Dose Administration ([4]; Compound (1) 100 mg CAP, Time 3 h): 2.246 ng/mL
- Average Plasma Concentrations of Compound (2) after Single-Dose Administration ([4]; Compound (1) 100 mg CAP, Time 4 h): 2.465 ng/mL
- Average Plasma Concentrations of Compound (2) after Single-Dose Administration ([4]; Compound (1) 100 mg CAP, Time 5 h): 2.331 ng/mL
SMILES: Cc1cc(=O)n(-c2ccc(C[C@H](NC(=O)c3cc(F)c(NS(=O)(=O)c4ccc(NC(=O)C(C)(C)C)cc4)cc3F)C(=O)O)cn2)c(=O)n1C [Compound (2)]
- Judgment Trough Value ([3]; estimated, repeated administration at 50 mg, 10th day): B (IC50 (1.9 ng/mL) or higher and less than IC90 (6.9 ng/mL))
